Results as given in patent US20220401468A1 (priority 2021, published 2022).

What was measured:
SARS-CoV-2 spike protein = SARS-CoV-2 spike protein (Severe acute respiratory syndrome coronavirus 2, UniProt P0DTC2); conditions: cited from earlier work
[1] = human, in vivo; cited from earlier work
[2] = system: SARS-CoV-2 (USA-WA1/2020); type: cell-based; conditions: Vero-E6 cells, 400 PFU/well, viral titer from plaque assay at 24 h post-infection

Heparin sodium salt
binding affinity (SARS-CoV-2 spike protein): high-picomolar affinity
probability of survival [1]: increased the probability of survival
risk of significant bleeding [1]: 10-15%
IC50, SARS-CoV-2 infection [2]: 0.05 µg/mL

low-molecular-weight heparin
serum IL-6 levels [1]: lower serum IL-6 levels
